How the values were obtained:
Assay in all cases: biochemical
Design in all cases: Invitrogen kinase panel: Z'Lyte activity (ATP at Km) or LanthaScreen competitive ATP-site binding, percent inhibition
PLK3 = PLK3 (Homo sapiens, UniProt Q9H4B4)
EGFR(T790M,L858R) = EGFR(T790M,L858R) (Homo sapiens, UniProt P00533, L858R/T790M)
FGFR4 = FGFR4 (Homo sapiens, UniProt P22455)
Ret = Ret (Homo sapiens, UniProt P07949)
PKC_theta = target: T1, PKC_theta (Homo sapiens, UniProt Q04759)
T1 construct: gene PRKCQ

ZAP-70 = target: T2, ZAP-70 (Homo sapiens, UniProt P43403)
T2 construct: gene ZAP70
T2 sequence (P43403 whole entry): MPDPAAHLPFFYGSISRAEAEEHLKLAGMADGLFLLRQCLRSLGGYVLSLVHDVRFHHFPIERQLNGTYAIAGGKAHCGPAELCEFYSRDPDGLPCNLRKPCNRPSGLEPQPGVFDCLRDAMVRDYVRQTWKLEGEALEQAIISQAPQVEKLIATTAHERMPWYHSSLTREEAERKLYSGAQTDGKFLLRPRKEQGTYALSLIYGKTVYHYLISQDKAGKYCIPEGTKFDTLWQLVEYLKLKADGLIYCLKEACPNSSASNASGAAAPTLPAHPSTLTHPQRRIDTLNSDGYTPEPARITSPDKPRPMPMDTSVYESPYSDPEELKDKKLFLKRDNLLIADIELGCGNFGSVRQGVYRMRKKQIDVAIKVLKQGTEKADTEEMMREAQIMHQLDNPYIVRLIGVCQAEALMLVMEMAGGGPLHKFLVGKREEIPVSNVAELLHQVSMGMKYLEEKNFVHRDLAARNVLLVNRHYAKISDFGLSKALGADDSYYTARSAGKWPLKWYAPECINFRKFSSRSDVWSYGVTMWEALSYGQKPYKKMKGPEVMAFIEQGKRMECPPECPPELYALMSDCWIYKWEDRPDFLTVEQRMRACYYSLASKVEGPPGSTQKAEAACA

YSK1 = target: T3, YSK1 (Homo sapiens, UniProt O00506)
T3 construct: gene STK25

EphB1 = EphB1 (Homo sapiens, UniProt P54762)
IKK_alpha = target: T4, IKK_alpha (Homo sapiens, UniProt O15111)
T4 construct: gene CHUK

GRK5 = GRK5 (Homo sapiens, UniProt P34947)
CK2_alpha1 = target: T5, CK2_alpha1 (Homo sapiens, UniProt P68400)
T5 construct: gene CSNK2A1

CK1_delta = target: T6, CK1_delta (Homo sapiens, UniProt P48730)
T6 construct: gene CSNK1D
T6 sequence (P48730 whole entry): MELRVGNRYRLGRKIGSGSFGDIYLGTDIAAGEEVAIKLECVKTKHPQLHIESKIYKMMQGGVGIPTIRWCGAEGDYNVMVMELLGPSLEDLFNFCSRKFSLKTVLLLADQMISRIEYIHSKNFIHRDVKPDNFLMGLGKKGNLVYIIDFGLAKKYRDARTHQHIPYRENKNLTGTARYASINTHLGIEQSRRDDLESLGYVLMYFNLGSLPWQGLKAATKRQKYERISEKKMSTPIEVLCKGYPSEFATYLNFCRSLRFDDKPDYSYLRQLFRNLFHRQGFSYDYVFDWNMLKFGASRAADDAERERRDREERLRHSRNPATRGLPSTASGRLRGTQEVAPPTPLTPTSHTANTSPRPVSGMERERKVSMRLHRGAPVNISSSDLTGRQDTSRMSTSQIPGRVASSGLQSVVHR

Mink1 = Mink1 (Homo sapiens, UniProt Q8N4C8)
TSSK1 = target: T7, TSSK1 (Homo sapiens, UniProt Q9BXA7)
T7 construct: gene TSSK1B

CLK3 = CLK3 (Homo sapiens, UniProt P49761)
Rsk3 = target: T8, Rsk3 (Homo sapiens, UniProt Q15349)
T8 construct: gene RPS6KA2

CDK9/cyclinT1 = CDK9/cyclinT1 (Homo sapiens, UniProt P50750)
DNA-PK = target: T9, DNA-PK (Homo sapiens, UniProt P78527)
T9 construct: gene PRKDC

SGK1 = SGK1 (Homo sapiens, UniProt O00141)
ROCK2 = ROCK2 (Homo sapiens, UniProt O75116)
ROCK2, sequence (O75116 whole entry): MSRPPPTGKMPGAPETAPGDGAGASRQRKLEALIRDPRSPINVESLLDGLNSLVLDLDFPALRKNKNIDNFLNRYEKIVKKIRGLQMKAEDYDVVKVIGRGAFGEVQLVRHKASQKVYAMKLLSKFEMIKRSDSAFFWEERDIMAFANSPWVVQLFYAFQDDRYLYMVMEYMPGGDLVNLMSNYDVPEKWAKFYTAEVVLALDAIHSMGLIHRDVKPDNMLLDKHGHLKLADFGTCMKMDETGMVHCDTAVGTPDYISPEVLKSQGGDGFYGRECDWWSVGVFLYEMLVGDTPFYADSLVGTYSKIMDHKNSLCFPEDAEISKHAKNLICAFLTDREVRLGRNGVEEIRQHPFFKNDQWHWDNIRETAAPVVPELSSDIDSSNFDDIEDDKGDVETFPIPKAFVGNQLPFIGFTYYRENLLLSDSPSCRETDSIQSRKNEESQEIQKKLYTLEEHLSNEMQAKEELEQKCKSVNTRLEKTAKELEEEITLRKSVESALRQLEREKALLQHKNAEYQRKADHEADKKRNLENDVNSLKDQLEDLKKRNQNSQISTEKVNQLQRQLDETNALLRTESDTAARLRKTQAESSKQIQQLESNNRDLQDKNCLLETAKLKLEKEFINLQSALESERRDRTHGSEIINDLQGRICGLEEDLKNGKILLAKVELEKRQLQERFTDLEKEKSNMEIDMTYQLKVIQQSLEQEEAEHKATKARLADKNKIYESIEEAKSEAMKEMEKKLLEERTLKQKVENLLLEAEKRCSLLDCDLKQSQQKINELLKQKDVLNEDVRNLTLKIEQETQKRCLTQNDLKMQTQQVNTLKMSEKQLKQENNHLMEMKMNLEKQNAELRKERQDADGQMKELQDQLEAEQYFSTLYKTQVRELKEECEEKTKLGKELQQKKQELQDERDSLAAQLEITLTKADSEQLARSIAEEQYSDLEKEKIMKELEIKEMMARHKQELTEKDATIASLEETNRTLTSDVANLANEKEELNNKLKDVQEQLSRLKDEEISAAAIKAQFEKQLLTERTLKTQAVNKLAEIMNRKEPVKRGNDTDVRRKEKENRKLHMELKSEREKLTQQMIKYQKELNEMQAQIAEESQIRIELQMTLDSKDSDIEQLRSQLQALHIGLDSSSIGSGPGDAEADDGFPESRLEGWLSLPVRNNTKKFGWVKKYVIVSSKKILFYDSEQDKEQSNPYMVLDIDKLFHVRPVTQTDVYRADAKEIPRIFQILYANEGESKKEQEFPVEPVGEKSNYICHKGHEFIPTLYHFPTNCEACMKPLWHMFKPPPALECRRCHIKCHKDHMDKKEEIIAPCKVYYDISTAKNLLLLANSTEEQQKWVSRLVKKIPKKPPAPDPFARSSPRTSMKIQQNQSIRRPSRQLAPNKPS

TEC = TEC (Homo sapiens, UniProt P42680)
p38_alpha(direct) = target: T10, p38_alpha(direct) (Homo sapiens, UniProt Q16539)
T10 construct: gene MAPK14; direct

MSSK1 = target: T11, MSSK1 (Homo sapiens, UniProt Q9UPE1)
T11 construct: gene SRPK3
T11 sequence (Q9UPE1 whole entry): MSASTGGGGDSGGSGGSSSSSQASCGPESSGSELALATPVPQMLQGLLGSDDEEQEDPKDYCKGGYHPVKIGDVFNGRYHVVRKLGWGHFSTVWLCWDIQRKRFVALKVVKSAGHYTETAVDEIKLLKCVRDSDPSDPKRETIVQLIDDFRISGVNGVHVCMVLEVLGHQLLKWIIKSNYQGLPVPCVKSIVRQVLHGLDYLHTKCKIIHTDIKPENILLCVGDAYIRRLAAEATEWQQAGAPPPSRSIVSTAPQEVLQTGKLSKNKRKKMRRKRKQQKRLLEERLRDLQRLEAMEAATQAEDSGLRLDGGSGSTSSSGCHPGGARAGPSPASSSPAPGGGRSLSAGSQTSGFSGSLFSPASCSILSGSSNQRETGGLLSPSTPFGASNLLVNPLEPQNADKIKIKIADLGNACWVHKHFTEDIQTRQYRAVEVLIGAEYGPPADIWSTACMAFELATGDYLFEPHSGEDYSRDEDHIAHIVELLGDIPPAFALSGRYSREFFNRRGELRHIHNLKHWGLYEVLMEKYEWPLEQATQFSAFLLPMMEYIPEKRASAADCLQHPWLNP

MuSK = MuSK (Homo sapiens, UniProt O15146)

PLK3, sequence (Q9H4B4 whole entry): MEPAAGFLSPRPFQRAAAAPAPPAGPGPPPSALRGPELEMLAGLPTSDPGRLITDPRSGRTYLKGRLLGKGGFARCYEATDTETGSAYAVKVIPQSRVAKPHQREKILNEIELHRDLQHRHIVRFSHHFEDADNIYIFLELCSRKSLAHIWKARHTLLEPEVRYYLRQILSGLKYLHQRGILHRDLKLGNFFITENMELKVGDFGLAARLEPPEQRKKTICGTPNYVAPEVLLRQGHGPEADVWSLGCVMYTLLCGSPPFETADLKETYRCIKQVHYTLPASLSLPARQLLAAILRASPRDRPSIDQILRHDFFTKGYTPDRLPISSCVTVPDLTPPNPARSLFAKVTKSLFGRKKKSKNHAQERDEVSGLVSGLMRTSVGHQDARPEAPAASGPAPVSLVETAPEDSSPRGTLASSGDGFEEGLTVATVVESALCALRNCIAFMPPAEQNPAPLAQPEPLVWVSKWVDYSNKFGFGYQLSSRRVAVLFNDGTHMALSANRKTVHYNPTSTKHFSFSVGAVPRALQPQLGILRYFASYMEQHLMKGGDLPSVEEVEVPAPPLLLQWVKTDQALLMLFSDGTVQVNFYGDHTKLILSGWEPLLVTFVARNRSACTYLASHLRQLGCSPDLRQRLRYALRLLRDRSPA
EGFR(T790M,L858R), sequence (P00533 whole entry T790M/L858R): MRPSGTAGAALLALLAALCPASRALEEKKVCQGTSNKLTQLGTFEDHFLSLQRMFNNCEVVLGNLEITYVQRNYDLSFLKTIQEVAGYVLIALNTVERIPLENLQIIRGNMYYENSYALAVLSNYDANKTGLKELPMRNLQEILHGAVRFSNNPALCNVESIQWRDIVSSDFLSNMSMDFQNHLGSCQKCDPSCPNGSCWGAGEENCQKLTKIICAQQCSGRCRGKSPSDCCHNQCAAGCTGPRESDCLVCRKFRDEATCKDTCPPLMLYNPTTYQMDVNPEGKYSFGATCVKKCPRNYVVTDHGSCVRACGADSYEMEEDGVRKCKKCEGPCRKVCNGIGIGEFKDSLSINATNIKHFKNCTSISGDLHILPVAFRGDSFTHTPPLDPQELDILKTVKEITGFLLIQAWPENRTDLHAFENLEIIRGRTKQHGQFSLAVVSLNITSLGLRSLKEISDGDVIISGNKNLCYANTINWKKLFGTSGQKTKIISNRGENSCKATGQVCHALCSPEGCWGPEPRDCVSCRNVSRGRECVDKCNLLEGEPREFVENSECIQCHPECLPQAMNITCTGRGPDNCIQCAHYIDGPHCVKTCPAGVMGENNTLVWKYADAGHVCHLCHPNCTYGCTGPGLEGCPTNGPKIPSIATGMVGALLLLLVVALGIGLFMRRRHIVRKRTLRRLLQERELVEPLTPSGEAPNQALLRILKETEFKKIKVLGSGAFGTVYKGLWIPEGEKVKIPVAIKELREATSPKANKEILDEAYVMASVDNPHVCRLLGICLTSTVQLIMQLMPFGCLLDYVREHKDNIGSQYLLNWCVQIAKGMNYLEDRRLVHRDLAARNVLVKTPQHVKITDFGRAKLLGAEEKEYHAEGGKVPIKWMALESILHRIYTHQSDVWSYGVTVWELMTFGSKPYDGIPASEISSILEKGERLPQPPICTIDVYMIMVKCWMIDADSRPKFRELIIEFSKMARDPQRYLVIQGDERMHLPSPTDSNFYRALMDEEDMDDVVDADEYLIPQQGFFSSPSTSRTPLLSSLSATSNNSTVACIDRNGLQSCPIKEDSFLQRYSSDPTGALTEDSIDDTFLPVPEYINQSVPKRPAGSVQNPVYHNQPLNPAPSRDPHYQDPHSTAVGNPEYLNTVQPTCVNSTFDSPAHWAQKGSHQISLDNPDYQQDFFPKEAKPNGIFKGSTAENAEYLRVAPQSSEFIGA

## CCOC(=O)Nc1cccc2c(Oc3ncccc3-c3ccnc(N[C@H]4CCCNC4)n3)c(C)ccc12 [G-1749]
PLK3
  inhibition at 1 µM: -5%
EGFR(T790M,L858R)
  inhibition at 1 µM: 2.5%
FGFR4
  inhibition at 1 µM: 7.5%
Ret
  inhibition at 1 µM: 10%
PKC_theta
  inhibition at 1 µM: 1.5%
ZAP-70
  inhibition at 1 µM: 3%
YSK1
  inhibition at 1 µM: 2.5%
EphB1
  inhibition at 1 µM: -17%
IKK_alpha
  inhibition at 1 µM: -3.5%
GRK5
  inhibition at 1 µM: -3%
CK2_alpha1
  inhibition at 1 µM: 0.5%
CK1_delta
  inhibition at 1 µM: 3%
Mink1
  inhibition at 1 µM: 25%
TSSK1
  inhibition at 1 µM: 8.5%
CLK3
  inhibition at 1 µM: 7%
Rsk3
  inhibition at 1 µM: 10%
CDK9/cyclinT1
  inhibition at 1 µM: 29%
DNA-PK
  inhibition at 1 µM: 6.5%
SGK1
  inhibition at 1 µM: 5.5%
ROCK2
  inhibition at 1 µM: 1%
TEC
  inhibition at 1 µM: 4%
p38_alpha(direct)
  inhibition at 1 µM: 77.5%
MSSK1
  inhibition at 1 µM: -1.5%
MuSK
  inhibition at 1 µM: 13.5%

## CC#CC(=O)Nc1cccc2c(Oc3ncccc3-c3ccnc(N[C@H]4CCCNC4)n3)c(C)ccc12 [G-7658]
PLK3
  inhibition at 1 µM: -2.5%
EGFR(T790M,L858R)
  inhibition at 1 µM: 4%
FGFR4
  inhibition at 1 µM: 9%
Ret
  inhibition at 1 µM: 8%
PKC_theta
  inhibition at 1 µM: 0%
ZAP-70
  inhibition at 1 µM: 4%
YSK1
  inhibition at 1 µM: -3%
EphB1
  inhibition at 1 µM: -11.5%
IKK_alpha
  inhibition at 1 µM: -2%
GRK5
  inhibition at 1 µM: -3%
CK2_alpha1
  inhibition at 1 µM: 0%
CK1_delta
  inhibition at 1 µM: 5.5%
Mink1
  inhibition at 1 µM: 4%
TSSK1
  inhibition at 1 µM: 7.5%
CLK3
  inhibition at 1 µM: 11.5%
Rsk3
  inhibition at 1 µM: 9%
CDK9/cyclinT1
  inhibition at 1 µM: 35%
DNA-PK
  inhibition at 1 µM: 11%
SGK1
  inhibition at 1 µM: 3.5%
ROCK2
  inhibition at 1 µM: -0.5%
TEC
  inhibition at 1 µM: 3%
p38_alpha(direct)
  inhibition at 1 µM: 36.5%
MSSK1
  inhibition at 1 µM: 7%
MuSK
  inhibition at 1 µM: 9.5%

Reference: paper PMC7736581, “Activation of the IRE1 RNase through remodeling of the kinase front pocket by ATP-competitive ligands” (Nature Communications, 2020)
